# Results reported in US6551774B1, “Diagnostic methods for conditions associated with elevated cellular levels of telomerase activity” (Board of Regents, The University of Texas System, priority 1992, dated 2003).
# Legend:
# [1] = system: IMR-90 human lung fibroblasts; experiment: Proliferative lifespan of IMR-90 fibroblasts fed oligonucleotides (Example 1); assay type: cell-based
# Description: The efficacy of the CTO-12 oligonucleotide (5′-[…]-3′ Seq. ID No. 2) to reduce telomere shortening associated with cellular senescence (FIG. 1) was studied using target cells cultured under standard cell culture conditions in minimal essential medium supplemented with 10% fetal calf serum. The cells were subcultivated every four days by trypsinization upon reaching confluency and were fed new medium at subcultivation or every two days, whichever came first. Cells at various population doubling levels were seeded at 10,000 cells per well and fed medium containing oligonucleotides at various concentrations. oligonucleotides studied were the cytidine-rich terminal oligonucleotide (CTO-12), guanidine-rich terminal oligonucleotide-12 bp (GTO-12, having the sequence 5′-[…]-3′ (SEQ ID NO:19), and a 12 base pair randomer with a random nucleotide in every position. As an additional control, cells were fed identical medium without oligonucleotide. Cells were fed oligonucleotide every 48 hours from 10×stocks. (Such oligonucleotides may be modified to enhance stability, e.g., with phosphorothioates, dithioate and 2-O-methyl RNA.) In the case of phosphorothioates it would be desirable to use longer CTO primers such as 5′-[…]-3′(SEQ ID NO:20), 5′-[…]-3′(SEQ ID NO:21), or 5′-[…]-3′(SEQ ID NO:22). […]
# [2] = system: MDA 157 human breast cancer cells; experiment: Proliferation of MDA 157 cancer cells fed oligonucleotides (Example 2); assay type: cell-based; details: 1.0 μM CTO-12
# Procedure: Specifically, MDA 157 human breast cancer cells with an immortal phenotype were seeded at 10,000 cells per well in 12 well tissue culture dishes and fed medium only or medium supplemented with GTO-12 (at 1.0 μM, 0.1 μM, and 0.01 μM). […] Cells fed the GTO-12 oligonucleotide, at 1.0 μM, however, ceased to proliferate after less than 10 doubling. […] The lack of effect of the G+C mixture may reflect the CTO-12 oligonucleotide, competing with or base pairing with the GTO-12 oligonucleotide, this preventing its inhibitory effect on the cancer cell telomerase.
# HME31E6 cells [3] = experiment: TRF shortening in HME31E6 cells cultured with CTO (Example 10); assay type: cell-based, human; details: 3, 10, 30 and 100 μM, between PDL 36 and 50
# Description: As in Example 1, the change in proliferative lifespan and rate of telomere shortening in cultured mammary epithelial cells treated with the indicated amounts of CTO (occasionally referred to as C-Rich Terminal Repeat (CTR)) versus control random oligonucleotides. Normal human mammary epithelial cells from a donor (31) were infected with the E6 gene of human papilloma virus 16. This gene product binds p53 protein and permits HME31 cells to have extended life span by proliferating from PDL 42 to PDL 62 when crisis occurs. During this extended lifespan period the TRFs shorten from an average of approximately 5 kb to 2.5 kb (compare in FIG. 12 HME31 PD 40 to HME31E6 PD 68).
# As controls the cells were cultured without oligonucleotides (nil) or with 30 μM random oligonucleotide. […] This is most easily seen by examining the subpopulation of telomere TRFs that migrate more slowly than the rest, giving a discrete trailing band. Cells were maintained in logarithmic growth with medium changed and fresh oligonucleotide added three times per week.
# HME31E6 cells [4] = experiment: Replicative lifespan of HME31E6 cells cultured with CTR (Example 10); assay type: cell-based, human; details: 30 μM and 100 μM
# Procedure: Human mammary epithelial cells expressing HPV16 E6 bypass M1 and have extended replicative lifespan. HME31 Cells normally senesce at PDL 42-45. When expressing […] they will bypass M1 and divide until they reach crisis (M2) at PDL 53-62. The TRFs in HME31 (E6) cells at PDL 40 are approximately 5-6 Kb while at PDL 62 they are 3-4 Kb (see FIG. 12). […] As controls, the cells were cultured without oligonucleotide (control), or with a 30 μM random oligonucleotide with the base content matched to the CTR oligonucleotide. […] The control cells divided approximately 20 times during the experiment, whereas the CTR-treated cells divided at least 40-50 times.
# IMR-90 lung fibroblasts = experiment: Life span of IMR-90 lung fibroblasts treated with phosphodiester CTO (Example 11); assay type: cell-based, human
# Procedure: Referring to FIG. 14, IMR-90 lung fibroblasts TRFat PDL 30 were treated with 10 μM, 30 μM or 100 μM phosphodiester CTO or with only media addition (control). The cells were cultured in medium containing regular defined supplemented calf serum. The cells were passaged in 24 well dishes and subcultivated by trypsinization upon reaching confluency at 25,000 cells per well. The cells were fed medium containing oligonucleotides at various concentrations daily. As a control, cells were fed identical medium without oligonucleotides. As is illustrated in FIG. 14, there was approximately a 12-15% extension of total life span with CTO. In these experiments the control cells divided approximately 15-18 times during the experiment, whereas the treated cells divided 23-26 times. IMR-90 telomeres shorten approximately 50 b.p. per division and the TRF length of the control IMR-90 fibroblasts at senescence was approximately 9 kb. Since the 100 μM CTO-treated IMR-90 cells senesced at PDL 55, the predicted difference in the rate of TRF loss between the control and the 100 μM CTO (9 kb vs 9.4 kb) is too small to be resolved using current techniques.
# SW26 cells = experiment: Frequency of escape from crisis (immortalization) of SW26 cells, fluctuation analysis; assay type: cell-based, human; details: bleomycin sulfate 25 μg/ml for two hours; LNL6 infection with 2 μg/ml polybrene
# Description: The frequency of escape from crisis (e.g., the immortalization frequency of T-antigen expressing cells) was estimated using an approach based on what is essentially a fluctuation analysis as previously described (Shay, J. W., and Wright, W. E. (1989) Exp. Cell Res. 184, 109-118). SW26 cells (a clone isolated from IMR 90 normal human lung fibroblasts transfected with a vector expressing SV40 large T antigen) were expanded approximately 15 PDL's before crisis into multiple series at a constant cell density of 6667 cells/cm^2. Each series was subsequently maintained as a separate culture, so that at the end of the experiment the fraction of each series that gave rise to immortal cell lines could be determined. Cultures were split at or just prior to confluence at 6667 cells/cm^2. […]
# The remainder of the dishes were used as controls (70 dishes) or infected with LNL6 defective retrovirus (100 dishes). […] Within a few days after infection, all control and experimental dishes were counted and each dish contained 1-2×10^6 cells. The PDL of each dish was calculated and cells were then replated at 0.33×10^6 in 50 cm^2 dishes and maintained separately to conduct the fluctuation analysis.
# Immortalization is expressed as the number of immortal lines per number of culture series, each series being derived from a single dish at the initiation of the experiment. […]
# IMR-90 SW26 cells = experiment: Cell death of IMR-90 SW26 cells on bleomycin sulfate treatment; assay type: cell-based, human; details: 25 μg/ml for two hours in serum free medium
# Procedure: SW 26 cells enter crisis at approximately PDL 82-85. Numerous vials of SW26 cells (8×10^6 cells/vial) were frozen at PDL 71, and testing verified that spontaneous immortalization events had not yet occurred. Five vials were thawed, scaled up for 4 days to approximately 10^8 cells (thus to approximately PDL 74), then trypsinized and combined into a single pool of cells in 40 ml of medium and distributed into 200 10 cm^2 dishes. Thirty dishes were treated with 25 μg/ml bleomycin sulfate (a chemical mutagen) for two hours in serum free medium one day later.
Substance,"doublings of continued proliferation more than control cells ([1]; 1.0 μM oligonucleotide, cells seeded at PD45)","population doubling at which replicative senescence was reached ([1]; CTO-12 at less than 1.0 μM (0.1 μM), seeded at PD45)",proliferation phenotype [2],TRF shortening compared to nil control and 30 μM random oligonucleotide (HME31E6 cells [3]),replicative lifespan compared to control and 30 μM random oligonucleotide (HME31E6 cells [4]; started at PDL 36),"number of cell divisions during the experiment (HME31E6 cells [4]; started at PDL 36, defined medium without serum)","number of cell divisions during the experiment (IMR-90 lung fibroblasts; 10 μM, 30 μM or 100 μM, from PDL 30)","extension of total life span (IMR-90 lung fibroblasts; 10 μM, 30 μM or 100 μM, from PDL 30, fed daily)",PDL at senescence (IMR-90 lung fibroblasts; 100 μM),Frequency (probability of obtaining an immortal cell line based on the number of cells plated at each passage) (SW26 cells),Immortalization (number of immortal lines per number of culture series) (SW26 cells),cells dying (IMR-90 SW26 cells)
5′-CCCTAACCCTAA-3′ [CTO-12],approximately 10 doubling,about 52 population doubling,continued to express the immortal phenotype,dose related retardation of TRF shortening,dose-related extension of the replicative lifespan,40-50 times,23-26 times,12-15%,55 PDL,,,
bleomycin sulfate,,,,,,,,,,7.7 × 10^−7,7/27,approximately 50%
